Test results as given in patent US10946019B2, “Nurr1:RXR activating compounds for simultaneous treatment of symptoms and pathology of Parkinson's disease” (priority 2015, dated 2021).

What was measured:
[1] = test system: SHSY-5Y dopaminergic cells; test: MPP+ induced cell death, MTT assay; format: cell-based, human
Method: (§1) MPP+, eradicates approximately 75% of the cells in 24 hours. […] Naive Neuro2A cells (FIG. 2A) or SH-SY5Y neuroblastoma cells FIG. 2B,C) were cultured in RPMI 1640, 10% fetal bovine serum at 37° C. Cells were pretreated with compound 3 for 12-24 h. Subsequent change of culture medium with addition of 0, 1, 2 and 4 mM MPP+ induced cell death. MTT assays determined the relative number of surviving cells FIG. 2D).
Such assays were performed, for instance, by adding compound 46 (12.5 μM) to human origin SHSY-5Y dopaminergic cells in which death was induced by the mitochondria complex I inhibitor MPP+ (1-methyl-4-phenylpyridinium), the active metabolite of MPTP (1-methyl-4-phenyl-1,2,3,6-tetrahydropyridine). […] Most of the MPP+-treated cells receiving vehicle died, while the few surviving cells remained attached to the plate but were rounded and had lost all projections. These morphological changes indicated impaired neuronal function. On the contrary, cells treated with compound 46 appeared healthy, flattened, well-attached, and their projections remained intact.
We examined the neuroprotective capability of Nurr1:RXRα heterodimer activation in SHSY-5Y cells where death was induced by either the oxidative stress related H2O2 or the mitochondria complex I inhibitor MPP+ (1-methyl-4-phenylpyridinium) (FIG. 72B). […] The protection conferred by compound 3 was Nurr1-dependent, since it was abrogated by knocking-down endogenous Nurr1 mRNA (FIGS. 1E and 72D). The neuroprotective effects of compound 3 extend to damage induced by the PD-associated mutation G2019S in the Leucine-Rich Repeat Kinase 2 (LRRK2) gene, the most common genetic defect associated with clinical PD (Tofaris et al. J. Neurosci. 26:3942-3950, 2006). Rat cortical neurons, co-transfected with CMV-GFP for identification, and CMVLRRK2-G2019S cDNAs show increased apoptosis as assessed by DAPI staining, compared to control neurons co-transfected with a LRRK2 wt cDNA.

Neuro2A cells = test: MPP+ induced toxicity in Neuro2A cells; format: cell-based
Method: as §1

[2] = test system: wild type 129/SV mice treated with MPTP; test: Neuroprotection against MPTP in wild type 129/SV mice; format: in vivo, mouse
Method: 20 mg/kg MPTP injections were administered 4 times at the zero day of treatment, spaced 2 hours apart. 7 days after the MPTP injections there was approximately an 80% reduction in striatal projections and 40%-50% dopaminergic neuron death in the SN.

striatal DA levels = test: Striatal dopamine and metabolite levels by HPLC-ECD in wild type mice; format: in vivo, mouse
Method: 4 hours after dosing, animals were killed by cervical dislocation, brains were removed, and the striata were dissected on ice. The samples were immediately frozen and stored at −80° C. until use. The tissues were processed for the analysis by high performance liquid chromatography (HPLC) with an electrochemical detector (ECD) (Emmanouil et al., 2006). The dissected tissues were weighed, homogenized, and deproteinized in 0.2N perchloric acid solution containing 7.9 mM Na2S2O5 and 1.3 mM Na2EDTA. The homogenate was centrifuged at 37,000×g for 30 minutes, and the supernatant was stored at −80° C. until assayed. A reverse-phase ion-pair chromatography was used in all analyses, and the mobile phase consisted of an acetonitrile-50 mM phosphate buffer at pH 3.0, containing 5-octylsulfate sodium salt (300 mg/L) as the ion-pair reagent and (20 mg/L) Na2EDTA. Reference standards were prepared in 0.2 N perchloric acid solution containing 7.9 mM Na2S2O5 and 1.3 mM Na2EDTA. Samples were quantified by comparison of the areas under the peaks with those of reference standards using HPLC software (Chromatography Station for Windows™, Watrex International Inc., San Francisco, Calif.). […]

[3] = test system: C57BL/6 mice injected unilaterally with 6-OHDA; test: Neuroprotection in the unilateral 6-OHDA mouse model; settings: for reduction of apomorphine induced contralateral turns: 10 mg/kg IP every 12 hours
noradrenaline levels = test: Striatal noradrenaline levels by HPLC-ECD; format: in vivo, mouse; settings: 4 hours
Method: 4 hours after dosing animals were killed by cervical dislocation, brains were removed, and the striata were dissected on ice. The samples were immediately frozen and stored at −80° C. until use. The tissues were processed for the analysis by high performance liquid chromatography (HPLC) with an electrochemical detector (ECD) (Emmanouil et al., 2006). The dissected tissues were weighed, homogenized, and deproteinized in 0.2 N perchloric acid solution containing 7.9 mM Na2S2O5 and 1.3 mM Na2EDTA. The homogenate was centrifuged at 37,000×g for 30 minutes, and the supernatant was stored at −80° C. until assayed. A reverse-phase ion-pair chromatography was used in all analyses, and the mobile phase consisted of an acetonitrile-50 mM phosphate buffer at pH 3.0, containing 5-octylsulfate sodium salt (300 mg/L) as the ion-pair reagent and (20 mg/L) Na2EDTA. Reference standards were prepared in 0.2 N perchloric acid solution containing 7.9 mM Na2S2O5 and 1.3 mM Na2EDTA. Samples were quantified by comparison of the areas under the peaks with those of reference standards using HPLC software (Chromatography Station for Windows™, Watrex International Inc., San Francisco, Calif.) (FIG. 3D).

## C=CCc1c(N(C)c2ccc(C(=O)O)cc2)nc(-c2ccccc2)nc1C(F)(F)F [Example 3, 4-((5-allyl-2-phenyl-6-(trifluoromethyl)pyrimidin-4-yl)(methyl)amino)benzoic acid]
[1]; 12.5 μM, varying concentrations of MPP+
  cell survival against MPP+: significantly increased cell survival
[1]; pretreated 12-24 h, MPP+ 24 hours, MTT
  number of surviving cells after MPP+: approximately doubles
Neuro2A cells
  protection from MPP+ induced toxicity: protects
[2]; 129sv wt mice
  neuroprotection against MPTP toxicity: equally effective
[2]; wild type 129/SV, MPTP, IP 10 mg/kg every 12 hours for 8 days
  increase in number of surviving neuronal bodies: 33.5%
Striatal DA levels; wild type C57/BL6 mice, single IP 20 mg/kg, 4 hours after dosing
  increase of striatal DA levels and dopamine metabolite (DOPAC and HVA) levels: 33%
Striatal DA levels; wt mice, single IP 10 mg/kg, 4 hours
  striatal DA and DA metabolite levels: increased
[3]; 6-OHDA, 10 mg/kg IP every 12 hours for 14 days
  motor coordination (rotarod test): almost entirely restored to control levels
[3]; 6-OHDA, vs vehicle, listed as Compound 3
  reduction of apomorphine induced contralateral turns: approximately 8 fold
[3]; 6-OHDA, vs vehicle, listed as compound 3
  reduction of apomorphine induced contralateral turns: over 8 fold
[3]; 6-OHDA, IP 10 mg/kg every 12 hours for 15 days
  increase in number of surviving neuronal bodies (SNpc): 256.55%
[3]; 6-OHDA, vs vehicle
  preservation of striatal TH(+) DAergic projections (innervation): 10 fold
[3]; unilateral 6-OHDA, compound 3 vs vehicle (n=5)
  Rotarod test improvement: 12 fold
Noradrenaline levels; IP 10 mg/kg
  noradrenaline levels: remained unaffected
Noradrenaline levels; wild type C57/BL6 mice, single IP 20 mg/kg
  noradrenaline levels: did not increase
